Experiment: thermal decomposition of the medicament at curing temperature
Format: physicochemical
Conditions: heat stability considered for curing poly(vinyl alcohol) in the presence of the medicament

For `CC1(C)O[C@@H]2C[C@H]3[C@@H]4C[C@H](F)C5=CC(=O)C=C[C@]5(C)[C@@]4(F)[C@@H](O)C[C@]3(C)[C@]2(C(=O)CO)O1` [flucinolone acetonide], the “temperature above which the medicament begins to decompose” value was “about 165 °C”.

— US20060067978A1, “Process for preparing poly(vinyl alcohol) drug delivery devices” (Bausch & Lomb Incorporated, priority 2004, published 2006)
